Data reported in PMC9913288, “Suppression of Cancer Cell Stemness and Drug Resistance via MYC Destabilization by Deubiquitinase USP45 Inhibition with a Natural Small Molecule” (Cancers, 2023).

Target: T1, USP45 (Homo sapiens, UniProt Q70EL2)
T1 construct: USP45-His purified from E. coli BL21, biotinylated
T1 sequence (Q70EL2 1-814): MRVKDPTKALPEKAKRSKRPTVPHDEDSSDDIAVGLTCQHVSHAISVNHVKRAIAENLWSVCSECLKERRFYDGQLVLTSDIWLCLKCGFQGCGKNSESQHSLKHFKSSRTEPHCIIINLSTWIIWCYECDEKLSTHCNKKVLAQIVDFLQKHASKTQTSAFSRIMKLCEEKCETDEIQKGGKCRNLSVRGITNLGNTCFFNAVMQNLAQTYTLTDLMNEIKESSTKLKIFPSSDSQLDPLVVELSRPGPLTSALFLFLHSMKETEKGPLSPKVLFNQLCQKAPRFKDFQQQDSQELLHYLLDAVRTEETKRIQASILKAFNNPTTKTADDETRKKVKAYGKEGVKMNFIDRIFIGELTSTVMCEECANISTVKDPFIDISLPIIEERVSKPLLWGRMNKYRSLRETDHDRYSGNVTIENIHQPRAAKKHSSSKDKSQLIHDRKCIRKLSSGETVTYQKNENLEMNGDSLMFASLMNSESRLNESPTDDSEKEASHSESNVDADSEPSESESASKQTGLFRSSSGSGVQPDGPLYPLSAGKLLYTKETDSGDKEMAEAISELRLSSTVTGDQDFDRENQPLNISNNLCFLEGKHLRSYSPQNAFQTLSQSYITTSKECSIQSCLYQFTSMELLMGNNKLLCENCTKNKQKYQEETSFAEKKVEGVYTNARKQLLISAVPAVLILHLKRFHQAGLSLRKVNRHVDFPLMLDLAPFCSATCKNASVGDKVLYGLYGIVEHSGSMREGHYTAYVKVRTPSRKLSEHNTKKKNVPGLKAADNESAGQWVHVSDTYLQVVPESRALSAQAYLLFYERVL
Assay: BLI (OCTET K2) with purified biotinylated USP45
Format: binding

Kd: 19.3 µM
SMILES: COc1c(O)cc2oc3cc(O)c(CC=C(C)C)c(O)c3c(=O)c2c1CC=C(C)C [AMG, α-mangostin]
